Measurements reported in publication PMC8304783, “Antiadhesive Properties of Imidazolium Ionic Liquids Based on (−)-Menthol Against Candida spp” (International Journal of Molecular Sciences, 2021).
Where two headings read alike, the source gives them in different places.

Key:
Assay type in all cases: cell-based
[1] = tested on: C. albicans SC5314; test: Minimal inhibitory and fungicidal concentrations (broth microdilution, CLSI M27-A3 modified); details: Candida albicans, 28 °C; for MFC: 120 h, replated on YPD agar, 5 days, read-out: Minimal fungicidal concentration (MFC); for MIC90: ≥90% growth inhibition, 48 h, YPD, read-out: Minimal inhibitory concentration (MIC90)
Experimental: (§1) Experiments were performed according to the Clinical and Laboratory Standards Institute (2008), 3rd ed. M27-A3 [51], with modifications described previously. Briefly, MICs were determined by serially diluting ILs in YPD medium in sterile 96-well plates (Sarstedt) and inoculating with fungal suspensions (final OD600 per well = 0.01). After incubation (48 h; 28 °C), the OD600 was measured (ASYS UVM 340 Biogenet). […] Each well was then replated on YPD agar and incubated for 5 days at 28 °C.

[2] = tested on: C. glabrata ATCC90030; test: as above; details: Nakaseomyces glabratus, 28 °C; for MFC: 120 h, replated on YPD agar, 5 days, read-out: Minimal fungicidal concentration (MFC); for MIC90: ≥90% growth inhibition, 48 h, YPD, read-out: Minimal inhibitory concentration (MIC90)
Experimental: as §1

[3] = tested on: C. krusei ATCC6258; test: as above; details: Pichia kudriavzevii, 28 °C; for MFC: 120 h, replated on YPD agar, 5 days, read-out: Minimal fungicidal concentration (MFC); for MIC90: ≥90% growth inhibition, 48 h, YPD, read-out: Minimal inhibitory concentration (MIC90)
Experimental: as §1

[4] = tested on: C. parapsilosis CBS10947; test: as above; details: Lodderomyces parapsilosis, 28 °C; for MFC: 120 h, replated on YPD agar, 5 days, read-out: Minimal fungicidal concentration (MFC); for MIC90: ≥90% growth inhibition, 48 h, YPD, read-out: Minimal inhibitory concentration (MIC90)
Experimental: as §1

[5] = tested on: C. albicans B3; test: MIC90 and MFC towards clinical isolates; details: Candida albicans, clinical isolate B3 (FLC-sensitive); for MFC: read-out: Minimal fungicidal concentration (MFC); for MIC90: read-out: Minimal inhibitory concentration (MIC90)
Experimental: as §1
(§2) The effect of imidazolium ILs based on of (1R,2S,5R)‐(−)‐menthol was evaluated on clinical, fluconazole(FLC)‐resistant and FLC‐sensitive C. albicans isolates. C. albicans Gu4 and Gu5 strains were isolated from a patient before and after fluconazole administration, respectively.
(§3) Azole‐resistance of Gu5 origins in overexpression of CDR1 and CD R2. C. albicans B3 and B4 strains […]
(§4) Azole‐resistance of B4 results from overexpression of MDR1. The strains were generous gifts from Prof. S. Milewski (Gdańsk, Poland) and Prof. J. Morschhäuser (Wurzburg, Germany). They are originally referenced in: Franz, R., Ruhnke, M. & Morschhäuser, J. Molecular aspects of fluconazole resistance development in Candida albicans. Mycoses 42, 453–458, (1999).
(§5) Table S1 summarizes the minimal inhibitory and fungicidal concentration (MIC90 and MFC, respectively) values of ILs tested against the C. albicans isolates (for ILs structures see section 5.2. in the mai n text). No difference in case of MIC90 values between the strains was observed. However, MFC values were two‐fold lower for the compounds 1b and 2a in case of B3 and B4 isolates. The MFC value of the compound 1a wa s two‐fold higher on ly in ca se of Gu5 strain.
(§6) Table S1. Minimal inhibitory concentrations (MIC90; μM) and minimal fungicidal concentrations (MFC; μM) of ionic liquids (ILs ) or fluconazole (FLC) towards clinical C. albicans isolates.

[6] = tested on: C. albicans B4; test: MIC90 and MFC towards clinical isolates; details: Candida albicans
Experimental: as §1, §2, §3, §4, §5, §6

[7] = tested on: C. albicans Gu4; test: MIC90 and MFC towards clinical isolates; details: Candida albicans, clinical isolate Gu4 (FLC-sensitive); for MFC: read-out: Minimal fungicidal concentration (MFC); for MIC90: read-out: Minimal inhibitory concentration (MIC90)
Experimental: as §1, §2, §3, §4, §5, §6

[8] = tested on: C. albicans Gu5; test: MIC90 and MFC towards clinical isolates; details: Candida albicans
Experimental: as §1, §2, §3, §4, §5, §6

[9] = tested on: C. albicans isolates; test: Detachment of adherent clinical isolates from polystyrene (isolates taken together); details: in most cases, 1, 2 and 4 times MIC90
Experimental: (§7) Post-adherence treatment with ILs was performed in a similar manner to that described previously by our team. Candida spp. suspensions were prepared by centrifuging YPD-grown cultures and resuspending fungal mass in PBS to an OD600 = 0.6. Sterile 96-well plates were inoculated with the prepared suspensions and incubated for 2 h at 37 °C to induce fungal adhesion. Afterwards, adherent cells were washed with PBS to remove planktonic cells and treated with ILs (concentrations equivalent to 1, 2 or 4 × MIC90 for each fungi) for 2 h at 37 °C. Then, each well was washed with PBS and adherent cells were fixed with 0.1% CV solution for 5 min, and washed with PBS. Cells were then treated with a solution of isopropanol 0.04 N HCL with 0.1% SDS to permeabilize adherent cells and release the CV dye. The absorbance of CV was measured at 590 nm (ASYS UVM 340 Biogenet). The percentage of cells that were removed was determined in comparison to adherent cells treated with PBS only (designated 100% adhesion).
as §2, §3

[10] = tested on: C. albicans B3; test: Detachment of adherent clinical isolates from polystyrene; details: isolate B3 on polystyrene; highest concentration (4 x MIC)
Experimental: as §7, §2, §3, §4
(§8) Table S1 summarizes the minimal inhibitory and fungicidal concentration (MIC90 and MFC, respectively) values of ILs tested against the C. albicans isolates (for ILs structures see section 5.2. in the mai n text). No difference in case of MIC90 values between the strains was observed. […]

[11] = tested on: C. albicans B4; test: as above; details: isolate B4 on polystyrene; highest concentration (4 x MIC)
Experimental: as §7, §2, §3, §4, §8

[12] = tested on: C. albicans Gu4; test: as above; details: isolate Gu4 on polystyrene; regardless of the concentration (1, 2, 4 x MIC)
Experimental: as §7, §2, §3, §4, §8

[13] = B4, read-out: Minimal fungicidal concentration (MFC)
[14] = B4, read-out: Minimal inhibitory concentration (MIC90)
[15] = GU5, read-out: Minimal fungicidal concentration (MFC)
[16] = GU5, read-out: Minimal inhibitory concentration (MIC90)

Row | SMILES | MFC [1] [µM] | MIC90 [1] [µM] | MFC [2] [µM] | MIC90 [2] [µM] | MFC [3] [µM] | MIC90 [3] [µM] | MFC [4] [µM] | MIC90 [4] [µM] | MFC [5] [µM] | MIC90 [5] [µM] | MFC [7] [µM] | MIC90 [7] [µM] | MFC [6, 13] [µM] | MIC90 [6, 14] [µM] | MFC [8, 15] [µM] | MIC90 [8, 16] [µM] | further results
1 | CCCCCCCCCn1cc[n+](CO[C@@H]2C[C@H](C)CC[C@H]2C(C)C)c1 [1a, 1-[(1R,2S,5R)-(−)-menthoxymethyl]-3-nonylimidazolium chloride] | 50 | 12.5 | 25 | 12.5 | 25 | 6.25 | 50 | 12.5 | 25 | 12.5 | 25 | 12.5 |  |  |  |  | MFC ([6]; clinical isolate B4 (FLC-resistant, MDR1 overexpression), read-out: Minimal fungicidal concentration (MFC)): 25 µM; MIC90 ([6]; clinical isolate B4 (FLC-resistant, MDR1 overexpression), read-out: Minimal inhibitory concentration (MIC90)): 12.5 µM; MFC ([8]; clinical isolate Gu5 (FLC-resistant, CDR1/CDR2 overexpression), read-out: Minimal fungicidal concentration (MFC)): 50 µM; MIC90 ([8]; clinical isolate Gu5 (FLC-resistant, CDR1/CDR2 overexpression), read-out: Minimal inhibitory concentration (MIC90)): 12.5 µM; Influence on adherent properties of C. albicans isolates [9]: did not influence
2 | CCCCCCCCCCn1cc[n+](CO[C@@H]2C[C@H](C)CC[C@H]2C(C)C)c1 [1b, 3-decyl-1-[(1R,2S,5R)-(−)-menthoxymethyl]imidazolium chloride] | 50 | 25 | 25 | 25 | 25 | 25 | 25 | 25 | 25 | 25 | 50 | 25 | 25 | 25 | 50 | 25 | Reduction of adhesion [10]: ~ 10%; Reduction of adhesion [11]: ~ 10%; Reduction of adhesion [12]: ~ 20%
3 | CCCCCCCCCOCn1cc[n+](CO[C@@H]2C[C@H](C)CC[C@H]2C(C)C)c1 [2a, 1-(1R,2S,5R)-(−)-menthoxymethyl-3-nonyloxymethylimidazolium chloride] | 25 | 12.5 | 12.5 | 12.5 | 12.5 | 6.25 | 25 | 12.5 | 12.5 | 12.5 | 25 | 12.5 | 12.5 | 12.5 | 25 | 12.5 | 
